Experimental data taken from US20220088024A1, “METHODS FOR TREATING CANCER USING TOZADENANT” (Biotie Therapies, Inc., priority 2018, published 2022).
Several values for one entry are separate records, joined by “and”; a condition that tells them apart may be missing. Identical values can stand only once.

Columns and labels:
[1] = Example 12: pharmacokinetics of tozadenant tablets (180 mg single dose, bioequivalence study) in humans; format: in vivo; settings: both sexes, plasma, oral, 180 mg (approximately 2.6 mg/kg in 70 kg human)
Protocol: In a clinical study, tozadenant was administered PO as tablets under fasted conditions, as a single administration at 180 mg. This was an open-label, single-center, randomized, 2-treatment, 2-way crossover bioequivalence study testing 2 different tablet formulation of tozadenant. A modified formulation of tozadenant has been developed for use in Phase 3 studies. The modified formulation for use in Phase 3 studies contains four fewer excipients compared to the Phase 2 formulation. This study, therefore, evaluated the bioequivalence of the Phase 3 formulation and the Phase 2 formulation.
Thirty-six (36) healthy adult, non-tobacco using male and female subjects were enrolled to ensure completion by 32 subjects. […]
The following PK parameters were calculated from the individual plasma tozadenant concentration-time data. All PK parameters were calculated using Phoenix WinNonlin® Version 6.3. […] For the calculation of the PK parameters, concentration values below the limit of quantitation (BLQ) were treated as zero before the first quantifiable concentration and as missing thereafter. […]
AUC and Cmax parameters were not to be calculated for subjects with only 2 or less consecutive time points with detectable concentrations. […]
Tozadenant was quantitated using a validated liquid chromatography/tandem mass spectrometry method with a lower limit of quantitation (LLOQ) of 0.00500 μg/mL.

[2] = system: AT-3ova CD73+ tumour (mouse breast carcinoma cell line AT-3); test: Example 1: anti-tumor responses of SYN-115 in the AT-3ova CD73+ tumour cell mouse model (tumor area); format: in vivo, C57/BL6 mice
Protocol: The C57BL/6 mouse breast carcinoma cell line AT-3 was obtained from Dr. Trina Stewart (Griffith University, Nathan, QLD, Australia. Tumor cell lines were transduced to express chicken ovalbumin peptide and CD73 as previously described (1, 2, 3). Tumor cells are periodically verified to be Mycoplasma negative by the Victorian Infectious Diseases References Lab (Melbourne, VIC, Australia) by PCR analysis. Tumor cells were grown in DMEM supplemented with 10% FCS, GlutaMAX, and penicillin/streptomycin. 5×10^5 cells were resuspended in PBS and injected s.c. into C57/BL6 mice in a 100 μL volume. At day 14 tumors were measured and mice were randomized into distinct treatment groups to ensure that each group had tumors of similar size at the onset of treatment. Mice were treated i.p. at days 14, 18, 22, and 26 with either isotype control (2A3; 200 μg/mouse) or anti-PD-1 mAb (RMP1-14, 200 μg/mouse) and where indicated SYN-115 (Batch 71236AA002) at the indicated dose or vehicle control once-daily via oral gavage on days 14 to 29. To calculate a dose of SYN-115, mouse weight was estimated to be 20 g per mouse. Therefore, 100 mg/kg=2 mg per mouse in 200 μL, which is equivalent to 10 mg/ml. […] Tumor sizes were determined by width * length and mice were culled when tumors reached the ethical limit of 150 mm^2.

[3] = system: B16F10 CD73 melanoma metastases; test: Example 9: number of lung tumor metastases in the B16F10 CD73 tumor mouse model; format: in vivo, C57/BL6 mice (A2A-/- or Wild-Type)
Protocol: The C57/BL6 mouse melanoma cell line B16F10 CD73 was cultured in DMEM supplemented with 10% FCS, GlutaMAX, and penicillin/streptomycin. Tumor cells are periodically verified to be Mycoplasma negative by the Victorian Infectious Diseases References
Lab (Melbourne, VIC, Australia) by PCR analysis. 2×10^5 cells were resuspended in PBS and injected i.v. into C57/BL6 mice (A2A^−/− or Wild-Type) in a 200 μL volume. At day 14 lungs were excised and the number of metastases counted under the dissecting microscope. Mice were dosed with either SYN-115 (Batch 71236AA002) at 100 mg/kg or vehicle control once-daily via oral gavage on days 0 to 13. To calculate a dose of SYN-115 mouse weight was estimated to be 20 g per mouse. Therefore, 100 mg/kg=2 mg per mouse in 200 μL, which is equivalent to 10 mg/ml. To make up 40 mL, 400 milligrams of SYN-115 was weighed and added into a Falcon tube, then 1 mL of Tween 80 was added and mixed into a paste and then 39 mL of 1% Methyl Cellulose was added. The solution was vortexed and then left on a rotating mixer for at least 2 hours and maintained at 4° C.

Question: Which results are given for `COc1ccc(N2CCOCC2)c2sc(NC(=O)N3CCC(C)(O)CC3)nc12` [SYN-115, 4-hydroxy-4-methyl-piperidine-1-carboxylic acid (4-methoxy-7-morpholin-4-yl-benzothiazol-2-yl)-amide]?
Answer: AUC [1]: 20600 ng·h/mL; Tumor size (width * length) ([2]; 2A3+SYN-115 (100 mg/kg), Day 6): 23.5 mm^2 and 27.03 mm^2 and 30.74 mm^2 and 17.5 mm^2 and 33.6 mm^2; Tumor size (width * length) ([2]; Anti-PD-1 (200 ug)+SYN-115 (100 mg/kg), Day 0): 13.76 mm^2 and 14 mm^2 and 17.2 mm^2 and 17.49 mm^2 and 26.22 mm^2 and 26.4 mm^2; Number of Tumor Metastases (lung), individual mice ([3]; 100 mg/kg once-daily oral gavage days 0 to 13, counted day 14, Batch 71236AA002): 53 and 108 and 107 and 61 and 72 and 64 and 40 and 24 and 56 and 82; Efficacy on tumor metastases ([3]; SYN-115 100 mg/kg once-daily oral, days 0 to 13): No efficacy
